Test results as given in ChEMBL document CHEMBL3045912, “Prediction of fungicidal activities of rice blast disease based on least-squares support vector machines and project pursuit regression” (2008).

tested on: Pyricularia grisea; assay: Fungicidal activity against Magnaporthe grisea in rice seedlings assessed as area of infection on leaves treated 24 hr prior to spore inoculation measured 5 days after the fungal challenge; type: functional

SMILES | log(%)
CCCCc1ccc(NC(=O)Cc2cs/c(=N\c3ccc(F)c(Cl)c3)n2C)cc1 | 1.3
Cn1c(CC(=O)Nc2ccc([N+](=O)[O-])cc2)cs/c1=N/c1ccc(F)cc1 | 0.9
Cn1c(CC(=O)Nc2ccc(OC(F)(F)F)cc2)cs/c1=N\c1cccc(Br)c1 | 1.7
Cn1c(CC(=O)Nc2ccc([N+](=O)[O-])cc2)cs/c1=N/c1ccc(C#N)cc1 | 0.7
CCCCCCc1ccc(/N=c2/scc(CC(=O)Nc3ccc(CC)cc3)n2C)cc1 | 2
COc1ccc(/N=c2\scc(CC(=O)Nc3ccc(C(F)F)cc3)n2C)cc1 | 1.4
CC(C)c1ccc(NC(=O)Cc2cs/c(=N/c3ccc(C(F)(F)F)cc3)n2C)cc1 | 1.8
COc1ccc(NC(=O)Cc2cs/c(=N/c3ccc([N+](=O)[O-])cc3)n2C)cc1 | 2
Cn1c(CC(=O)Nc2ccc(OC(F)(F)F)cc2)cs/c1=N\c1cccc(C(F)(F)F)c1 | 1.7
COc1ccc(NC(=O)Cc2cs/c(=N\c3ccccc3C(C)C)n2C)cc1 | 1.9
COc1ccccc1/N=c1\scc(CC(=O)Nc2ccc(OC(F)(F)F)cc2)n1C | 0.7
Cn1c(CC(=O)Nc2ccc(Oc3ccccc3)cc2)cs/c1=N/c1ccc(Oc2ccccc2)cc1 | 1.4
CCc1ccc(NC(=O)Cc2cs/c(=N/c3ccc([N+](=O)[O-])cc3OC)n2C)cc1 | 1.81
COc1ccc(NC(=O)Cc2cs/c(=N\c3cccc(C(F)(F)F)c3)n2C)cc1 | 2
CCCCc1ccc(NC(=O)Cc2cs/c(=N\c3cccc(F)c3)n2C)cc1 | 1
CC(C)Oc1ccc(/N=c2/scc(CC(=O)Nc3ccc(C(F)F)cc3)n2C)cc1 | 1.7

SMILES | log(%)
CCc1ccc(NC(=O)Cc2cs/c(=N/c3ccc(C(C)=O)cc3)n2C)cc1 | 2
CCCCOc1ccc(NC(=O)Cc2cs/c(=N\c3cccc(F)c3)n2C)cc1 | 1
CCc1ccc(NC(=O)Cc2cs/c(=N\c3ccc(C)cc3Cl)n2C)cc1 | 2
CCc1ccc(NC(=O)Cc2cs/c(=N/c3ccc(Cl)cc3)n2C)cc1 | 2
CCCCOc1ccc(NC(=O)Cc2cs/c(=N/c3ccc(C(F)(F)F)cc3)n2C)cc1 | 1
Cn1c(CC(=O)Nc2ccc(Oc3ccccc3)cc2)cs/c1=N\c1cccc(Br)c1 | 0.9
Cn1c(CC(=O)Nc2ccc(OC(F)(F)F)cc2)cs/c1=N\c1ccc(F)cc1 | 0.9
CCOc1ccc(NC(=O)Cc2cs/c(=N\c3ccc(F)cc3F)n2C)cc1 | 1.9
Cn1c(CC(=O)Nc2ccc(Cl)cc2)cs/c1=N/c1ccc(-c2ccccc2)cc1 | 1.98
COc1ccc(NC(=O)Cc2cs/c(=N\c3ccc(Cl)c(C(F)(F)F)c3)n2C)cc1 | 2
Cn1c(CC(=O)Nc2ccc(Br)cc2)cs/c1=N\c1cccc(F)c1 | 1.9
CCc1ccc(NC(=O)Cc2cs/c(=N/c3ccc(CC#N)cc3)n2C)cc1 | 2
Cn1c(CC(=O)Nc2ccc(C(F)F)cc2)cs/c1=N\c1ccc(Br)cc1 | 1.4
CCc1ccc(NC(=O)Cc2cs/c(=N\c3ccc(Br)cc3F)n2C)cc1 | 2
CCc1ccc(NC(=O)Cc2cs/c(=N\c3ccc(OC)cc3C)n2C)cc1 | 2
COc1ccc(/N=c2/scc(CC(=O)Nc3ccc(OC(F)(F)F)cc3)n2C)cc1 | 1.4
